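Cultured in 96-well plates, cells were exposed to test compound for 48 hours across five concentrations. TGI: concentration producing complete growth inhibition.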
Experiments:
Assay in all cases: DTP human tumour cell line panel, 48 h
SR leukemia = system: SR leukemia
U251 CNS = system: U251 CNS
SNB-19 CNS = system: SNB-19 CNS
MDA-MB-231 breast = system: MDA-MB-231 breast
SK-MEL-5 melanoma = system: SK-MEL-5 melanoma
HCC-2998 colon = system: HCC-2998 colon
PC-3 prostate = system: PC-3 prostate
BT-549 breast = system: BT-549 breast
OVCAR-5 ovarian = system: OVCAR-5 ovarian
MOLT-4 leukemia = system: MOLT-4 leukemia
KM12 colon = system: KM12 colon
ACHN renal = system: ACHN renal
UACC-257 melanoma = system: UACC-257 melanoma
OVCAR-3 ovarian = system: OVCAR-3 ovarian
M14 melanoma = system: M14 melanoma
COLO 205 colon = system: COLO 205 colon
SF-295 CNS = system: SF-295 CNS
NCI-H23 lung = system: NCI-H23 lung
UO-31 renal = system: UO-31 renal
MALME-3M melanoma = system: MALME-3M melanoma
UACC-62 melanoma = system: UACC-62 melanoma
DU-145 prostate = system: DU-145 prostate
HL-60(TB) leukemia = system: HL-60(TB) leukemia
A549 NSCLC = system: A549 NSCLC
OVCAR-4 ovarian = system: OVCAR-4 ovarian
NCI-H226 lung = system: NCI-H226 lung
CCRF-CEM leukemia = system: CCRF-CEM leukemia
OVCAR-8 ovarian = system: OVCAR-8 ovarian
LOX IMVI melanoma = system: LOX IMVI melanoma
SK-MEL-28 melanoma = system: SK-MEL-28 melanoma
NCI/ADR-RES ovarian = system: NCI/ADR-RES ovarian
HCT-116 colon = system: HCT-116 colon
A498 renal = system: A498 renal
SW-620 colon = system: SW-620 colon
T-47D breast = system: T-47D breast
MCF7 breast = system: MCF7 breast
SK-OV-3 ovarian = system: SK-OV-3 ovarian
SNB-75 CNS = system: SNB-75 CNS
HOP-92 NSCLC = system: HOP-92 NSCLC
786-0 renal = system: 786-0 renal
SF-539 CNS = system: SF-539 CNS
MDA-MB-435 = system: MDA-MB-435
HCT-15 colon = system: HCT-15 colon
HS 578T breast = system: HS 578T breast
NCI-H522 lung = system: NCI-H522 lung
SF-268 CNS = system: SF-268 CNS
CAKI-1 renal = system: CAKI-1 renal
EKVX NSCLC = system: EKVX NSCLC
MDA-N = system: MDA-N
IGROV1 ovarian = system: IGROV1 ovarian
SK-MEL-2 melanoma = system: SK-MEL-2 melanoma
RXF 393 renal = system: RXF 393 renal
SN12C renal = system: SN12C renal
HOP-62 NSCLC = system: HOP-62 NSCLC
TK-10 renal = system: TK-10 renal
HT29 colon = system: HT29 colon
RPMI-8226 leukemia = system: RPMI-8226 leukemia
K-562 leukemia = system: K-562 leukemia
NCI-H460 lung = system: NCI-H460 lung

Work on `COc1ccc2c3c(c(=O)n(C)c2c1OC)C=CC(C)(C)O3` yielded a TGI (SR leukemia) of 24.9 µM, a TGI (U251 CNS) of over 100 µM and a TGI (SNB-19 CNS) of over 100 µM. It also gave a TGI (MDA-MB-231 breast) of 54 µM, a TGI (SK-MEL-5 melanoma) of 30.1 µM and a TGI (HCC-2998 colon) of over 100 µM. It also gave a TGI (PC-3 prostate) of over 100 µM, a TGI (BT-549 breast) of over 100 µM and a TGI (OVCAR-5 ovarian) of over 100 µM. It also gave a TGI (MOLT-4 leukemia) of 54.7 µM, a TGI (KM12 colon) of 77 µM and a TGI (ACHN renal) of 27.5 µM. For the same molecule, the TGI (UACC-257 melanoma) was over 100 µM, the TGI (OVCAR-3 ovarian) was over 100 µM and the TGI (M14 melanoma) was over 100 µM. For the same molecule, the TGI (COLO 205 colon) was 40.2 µM, the TGI (SF-295 CNS) was over 100 µM and the TGI (NCI-H23 lung) was 84.9 µM. It also gave a TGI (UO-31 renal) of 63.3 µM, a TGI (MALME-3M melanoma) of over 100 µM and a TGI (UACC-62 melanoma) of over 100 µM. For the same molecule, the TGI (DU-145 prostate) was over 100 µM, the TGI (HL-60(TB) leukemia) was 29.8 µM and the TGI (A549 NSCLC) was over 100 µM. It also gave a TGI (OVCAR-4 ovarian) of 41.3 µM, a TGI (NCI-H226 lung) of 80.9 µM and a TGI (CCRF-CEM leukemia) of 88.3 µM. The TGI (OVCAR-8 ovarian) was over 100 µM, the TGI (LOX IMVI melanoma) was over 100 µM and the TGI (SK-MEL-28 melanoma) was over 100 µM. For the same molecule, the TGI (NCI/ADR-RES ovarian) was 64.3 µM, the TGI (HCT-116 colon) was over 100 µM and the TGI (A498 renal) was 71.7 µM. It also gave a TGI (SW-620 colon) of over 100 µM, a TGI (T-47D breast) of over 100 µM and a TGI (MCF7 breast) of over 100 µM. For the same molecule, the TGI (SK-OV-3 ovarian) was over 100 µM, the TGI (SNB-75 CNS) was 48.2 µM and the TGI (HOP-92 NSCLC) was 76 µM. For the same molecule, the TGI (786-0 renal) was over 100 µM, the TGI (SF-539 CNS) was over 100 µM and the TGI (MDA-MB-435) was over 100 µM. It also gave a TGI (HCT-15 colon) of 27.9 µM, a TGI (HS 578T breast) of 78.4 µM and a TGI (NCI-H522 lung) of over 100 µM. For the same molecule, the TGI (SF-268 CNS) was over 100 µM, the TGI (CAKI-1 renal) was 38.4 µM and the TGI (EKVX NSCLC) was over 100 µM. It also gave a TGI (MDA-N) of 62.2 µM, a TGI (IGROV1 ovarian) of over 100 µM and a TGI (SK-MEL-2 melanoma) of over 100 µM. The TGI (RXF 393 renal) was over 100 µM, the TGI (SN12C renal) was 54.8 µM and the TGI (HOP-62 NSCLC) was over 100 µM. For the same molecule, the TGI (TK-10 renal) was over 100 µM, the TGI (HT29 colon) was 72.7 µM and the TGI (RPMI-8226 leukemia) was 29.3 µM.

In the case of `COc1ccc(-c2cc(-c3cc(OC)c(OC)c(OC)c3)cc(-c3cc4ccccc4oc3=O)n2)cc1`, the TGI (SR leukemia) is reported as over 100 µM, the TGI (U251 CNS) is reported as 12.5 µM and the TGI (SNB-19 CNS) is reported as 37.7 µM. The TGI (MDA-MB-231 breast) was 8.07 µM, the TGI (SK-MEL-5 melanoma) was 18.6 µM and the TGI (HCC-2998 colon) was 80.5 µM. For the same molecule, the TGI (PC-3 prostate) was 76.8 µM, the TGI (BT-549 breast) was 27.8 µM and the TGI (MOLT-4 leukemia) was over 100 µM. For the same molecule, the TGI (KM12 colon) was over 100 µM, the TGI (ACHN renal) was 16.3 µM and the TGI (UACC-257 melanoma) was 63.3 µM. It also gave a TGI (OVCAR-3 ovarian) of 68.3 µM, a TGI (M14 melanoma) of over 100 µM and a TGI (COLO 205 colon) of over 100 µM. It also gave a TGI (SF-295 CNS) of 19.4 µM, a TGI (NCI-H23 lung) of 29.8 µM and a TGI (UO-31 renal) of 24.7 µM. The TGI (MALME-3M melanoma) was 23.9 µM, the TGI (UACC-62 melanoma) was 33.6 µM and the TGI (DU-145 prostate) was 56.1 µM. The TGI (HL-60(TB) leukemia) was over 100 µM, the TGI (A549 NSCLC) was 60 µM and the TGI (OVCAR-4 ovarian) was 21.4 µM. The TGI (NCI-H226 lung) was 22.2 µM, the TGI (CCRF-CEM leukemia) was over 100 µM and the TGI (OVCAR-8 ovarian) was 16.3 µM. The TGI (K-562 leukemia) was over 100 µM, the TGI (LOX IMVI melanoma) was over 100 µM and the TGI (NCI/ADR-RES ovarian) was 31.6 µM. It also gave a TGI (HCT-116 colon) of 18.2 µM, a TGI (NCI-H460 lung) of 17.8 µM and a TGI (A498 renal) of 17.6 µM. It also gave a TGI (SW-620 colon) of over 100 µM, a TGI (T-47D breast) of 26 µM and a TGI (MCF7 breast) of over 100 µM. The TGI (SK-OV-3 ovarian) was 14.5 µM, the TGI (SNB-75 CNS) was 9.61 µM and the TGI (HOP-92 NSCLC) was 16.8 µM. It also gave a TGI (786-0 renal) of 5.34 µM, a TGI (SF-539 CNS) of 7.88 µM and a TGI (MDA-MB-435) of over 100 µM. The TGI (HCT-15 colon) was over 100 µM, the TGI (HS 578T breast) was 7.14 µM and the TGI (NCI-H522 lung) was 34.5 µM. The TGI (SF-268 CNS) was 16.7 µM, the TGI (CAKI-1 renal) was 17.3 µM and the TGI (EKVX NSCLC) was 31.5 µM. For the same molecule, the TGI (MDA-N) was 68 µM, the TGI (IGROV1 ovarian) was 24.6 µM and the TGI (SK-MEL-2 melanoma) was 62.2 µM. For the same molecule, the TGI (RXF 393 renal) was 16.1 µM, the TGI (SN12C renal) was 49.7 µM and the TGI (HOP-62 NSCLC) was 5.8 µM. The TGI (TK-10 renal) was 21.1 µM and the TGI (HT29 colon) was over 100 µM.

— PubChem BioAssay (NCI)
